Experimental data as given in PMC4626217 (Bioorganic & medicinal chemistry, 2015).

Tests used:
HDACs 1–3 = experiment: HDAC biochemical assay, text summary over HDACs 1–3; parameters: species or system human; conditions: summary of Table 1; for IC50: read-out: IC50 for HDACs 1–3; for IC50 range in words: HDACs 1–3 where stated, unit inside the printed words
[1] = tested on: 10326 NUT midline carcinoma cell line; experiment: 10326 cell viability; format: cell-based; conditions: 48 hours incubation, ATPLite; ± standard error of LogIC50
[2] = tested on: 797 NUT midline carcinoma cell line; experiment: 797 cell viability; format: cell-based; conditions: 48 hours incubation, ATPLite; ± standard error of LogIC50
HDAC1 = HDAC1 (Homo sapiens, UniProt Q13547); experiment: HDAC biochemical assay; conditions: relative to compound 6
HDAC1, sequence (Q13547 whole entry): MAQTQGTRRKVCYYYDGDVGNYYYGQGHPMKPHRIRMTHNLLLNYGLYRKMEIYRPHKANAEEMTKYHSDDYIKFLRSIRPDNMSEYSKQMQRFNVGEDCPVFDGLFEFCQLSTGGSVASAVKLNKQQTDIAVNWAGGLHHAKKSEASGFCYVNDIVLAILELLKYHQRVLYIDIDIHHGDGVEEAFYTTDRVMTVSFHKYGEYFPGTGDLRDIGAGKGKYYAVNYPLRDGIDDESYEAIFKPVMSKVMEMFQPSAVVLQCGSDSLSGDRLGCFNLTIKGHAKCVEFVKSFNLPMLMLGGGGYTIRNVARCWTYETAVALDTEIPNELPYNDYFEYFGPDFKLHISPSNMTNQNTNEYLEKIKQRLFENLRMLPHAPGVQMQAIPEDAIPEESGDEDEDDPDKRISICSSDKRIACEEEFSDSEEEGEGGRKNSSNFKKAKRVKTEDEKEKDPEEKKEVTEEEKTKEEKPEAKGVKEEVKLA

Row | SMILES | IC50 range in words (HDACs 1–3) | fold decrease in activity in HDAC1 in going from 6 to its amide isostere (HDAC1) | IC50 (HDACs 1–3) | 10326 LogIC50 [1] | 797 LogIC50 [2]
1 | CC(C)[C@@H]1NC(=O)[C@]2(C)CSC(=N2)c2csc(n2)CNC(=O)C[C@@H](/C=C/CCS)OC1=O [Compound 2, Largazole thiol, reference compound] | – | – | < 25 nM | – | –
2 | CC(C)[C@@H]1NC(=O)[C@]2(C)CSC(=N2)c2csc(n2)CNC(=O)C[C@@H](/C=C/CCS)NC1=O [Compound 4, Largazole peptide isostere thiol] | – | – | < 25 nM | −4.923 ± 0.9900 | −5.761 ± 0.05449
3 | CC(C)[C@@H]1NC(=O)[C@]2(C)CSC(=N2)c2ccnc(c2)CNC(=O)C[C@@H](/C=C/CCS)NC1=O [Compound 12, Peptide isostere pyridyl “OUT” thiol] | double-digit nM range | – | < 25 nM | – | –

The next lines start with results.

Row | IC50 range in words (HDACs 1–3) | fold decrease in activity in HDAC1 in going from 6 to its amide isostere (HDAC1) | SMILES | IC50 (HDACs 1–3) | 10326 LogIC50 [1] | 797 LogIC50 [2]
4 | single digit nM range | – | CC(C)[C@@H]1NC(=O)[C@]2(C)CSC(=N2)c2cccc(n2)CNC(=O)C[C@@H](/C=C/CCS)OC1=O [Compound 6, Depsipeptide pyridyl “IN” thiol] | < 25 nM | – | –
5 | single digit nM range | – | CC(C)[C@@H]1NC(=O)[C@]2(C)CSC(=N2)c2ccnc(c2)CNC(=O)C[C@@H](/C=C/CCS)OC1=O [Compound 8, Depsipeptide pyridyl “OUT” thiol] | < 25 nM | – | –
6 | double-digit nM range | 16 fold | CC(C)[C@@H]1NC(=O)[C@]2(C)CSC(=N2)c2cccc(n2)CNC(=O)C[C@@H](/C=C/CCS)NC1=O [Compound 10, Peptide isostere pyridyl “IN” thiol] | – | – | –
